One experiment has as its system NL-RLuc virus (recombinant NL4-3 proviral clone with Renilla Luciferase gene). In words: Inhibition of HIV replication (NL-RLuc reporter virus in MT-2 cells). In kind it is cell-based. As to conditions: Renilla, NL43, 120 h, read-out: Activity. The essentials:
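Antiviral EC50 came from luciferase signal after 5-day multicycle replication of NL-RLuc virus in MT-2 cells with serially diluted compound (RPMI 1640, 10% heat-inactivated FBS), fitted by the median effect equation over at least 2 experiments.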
In the case of `Cc1nc(C)c([C@H](OC(C)(C)C)C(=O)O)c(N2CCC(C)(C)CC2)c1-c1ccc(C(=O)NCc2ccccn2)cc1` [Example 66, (S)-2-(tert-Butoxy)-2-(4-(4,4-dimethylpiperidin-1-yl)-2,6-dimethyl-5-(4-((pyridin-2-ylmethyl)carbamoyl)phenyl)pyridin-3-yl)acetic acid], the EC50 is under 0.1 µM.

Regarding `CCOc1cc(F)cc(F)c1CNC(=O)c1ccc(-c2c(C)nc(C)c([C@H](OC(C)(C)C)C(=O)O)c2N2CCC(C)(C)CC2)cc1` [Example 67, (S)-2-(tert-Butoxy)-2-(4-(4,4-dimethylpiperidin-1-yl)-5-(4-((2-ethoxy-4,6-difluorobenzyl)carbamoyl)phenyl)-2,6-dimethylpyridin-3-yl)acetic acid], the EC50 is under 0.1 µM. Same read-out and setting: in the case of `Cc1nc(C)c([C@H](OC(C)(C)C)C(=O)O)c(N2CCC(C)(C)CC2)c1-c1ccc(C(=O)NCc2c(F)cc(F)cc2F)cc1` [Example 69, (S)-2-(tert-Butoxy)-2-(4-(4,4-dimethylpiperidin-1-yl)-2,6-dimethyl-5-(4-((2,4,6-trifluorobenzyl)carbamoyl)phenyl)pyridin-3-yl)acetic acid] it was under 0.1 µM; in that of `Cc1nc(C)c([C@H](OC(C)(C)C)C(=O)O)c(N2CCC(C)(C)CC2)c1-c1ccc(N)cc1` [Example 70, (S)-2-(5-(4-Aminophenyl)-4-(4,4-dimethylpiperidin-1-yl)-2,6-dimethylpyridin-3-yl)-2-(tert-butoxy)acetic acid], 0.1 to 1 µM. `CCOC(=O)Nc1ccc(-c2c(C)nc(C)c([C@H](OC(C)(C)C)C(=O)O)c2N2CCC(C)(C)CC2)cc1` [Example 71, (S)-2-(tert-Butoxy)-2-(4-(4,4-dimethylpiperidin-1-yl)-5-(4-((ethoxycarbonyl)amino)phenyl)-2,6-dimethylpyridin-3-yl)acetic acid]: the EC50 was under 0.1 µM.

As for `Cc1nc(C)c([C@H](OC(C)(C)C)C(=O)O)c(N2CCC(C)(C)CC2)c1-c1ccc(NC(=O)Cc2ccc(F)cc2)cc1` [Example 72, (S)-2-(tert-Butoxy)-2-(4-(4,4-dimethylpiperidin-1-yl)-5-(4-(2-(4-fluorophenyl)acetamido)phenyl)-2,6-dimethylpyridin-3-yl)acetic acid], the EC50 was under 0.1 µM. Still for that read-out and setting: in the case of `Cc1nc(C)c([C@H](OC(C)(C)C)C(=O)O)c(N2CCC(C)(C)CC2)c1-c1ccc(NCCc2ccc(F)cc2)cc1` [Example 73, (S)-2-(tert-Butoxy)-2-(4-(4,4-dimethylpiperidin-1-yl)-5-(4-((4-fluorophenethyl)amino)phenyl)-2,6-dimethylpyridin-3-yl)acetic acid] it was under 0.1 µM.

Consider `Cc1nc(C)c([C@H](OC(C)(C)C)C(=O)O)c(N2CCC(C)(C)CC2)c1-c1ccc(N(CCc2ccc(F)cc2)C(O)Cc2ccc(F)cc2)cc1` (stereo partly drawn) [Example 74, (2S)-2-(tert-Butoxy)-2-(4-(4,4-dimethylpiperidin-1-yl)-5-(4-((4-fluorophenethyl)(2-(4-fluorophenyl)-1-hydroxyethyl)amino)phenyl)-2,6-dimethylpyridin-3-yl)acetic acid], for which the EC50 is under 0.1 µM. The same measure, in the same setting: to `CC(=O)N(CCc1ccc(F)cc1)c1ccc(-c2c(C)nc(C)c([C@H](OC(C)(C)C)C(=O)O)c2N2CCC(C)(C)CC2)cc1` [Example 75, (S)-2-(tert-Butoxy)-2-(4-(4,4-dimethylpiperidin-1-yl)-5-(4-(N-(4-fluorophenethyl)acetamido)phenyl)-2,6-dimethylpyridin-3-yl)acetic acid] belongs under 0.1 µM. Still for that read-out and setting: in the case of `Cc1nc(C)c([C@H](OC(C)(C)C)C(=O)O)c(N2CCC(C)(C)CC2)c1-c1ccc(N(C)CCc2ccc(F)cc2)cc1` [Example 76, (S)-2-(tert-Butoxy)-2-(4-(4,4-dimethylpiperidin-1-yl)-5-(4-((4-fluorophenethyl)(methyl)amino)phenyl)-2,6-dimethylpyridin-3-yl)acetic acid] it was under 0.1 µM; in that of `Cc1nc(C)c([C@H](OC(C)(C)C)C(=O)O)c(N2CCC(C)(C)CC2)c1-c1ccc(N(CCO)CCc2ccc(F)cc2)cc1` [Example 77, (S)-2-(tert-Butoxy)-2-(4-(4,4-dimethylpiperidin-1-yl)-5-(4-((4-fluorophenethyl)(2-hydroxyethyl)amino)phenyl)-2,6-dimethylpyridin-3-yl)acetic acid], under 0.1 µM; in that of `Cc1nc(C)c([C@H](OC(C)(C)C)C(=O)O)c(N2CCC(C)(C)CC2)c1-c1ccc(SCCc2ccc(F)cc2)cc1` [Example 78, (S)-2-(tert-Butoxy)-2-(4-(4,4-dimethylpiperidin-1-yl)-5-(4-((4-fluorophenethyl)thio)phenyl)-2,6-dimethylpyridin-3-yl)acetic acid], under 0.1 µM. Still for that read-out and setting: in the case of `Cc1nc(C)c([C@H](OC(C)(C)C)C(=O)O)c(N2CCC(C)(C)CC2)c1-c1ccc(S(=O)(=O)CCc2ccc(F)cc2)cc1` [Example 79, (S)-2-(tert-Butoxy)-2-(4-(4,4-dimethylpiperidin-1-yl)-5-(4-((4-fluorophenethyl)sulfonyl)phenyl)-2,6-dimethylpyridin-3-yl)acetic acid] it was under 0.1 µM; in that of `Cc1nc(C)c([C@H](OC(C)(C)C)C(=O)O)c(N2CCC(C)(C)CC2)c1-c1ccc(/S(CCc2ccc(F)cc2)=N/C(=O)OC(C)(C)C)cc1` (stereo partly drawn) [Example 80, (2S)-2-(tert-Butoxy)-2-(5-(4-((E)-N-(tert-butoxycarbonyl)-S-(4-fluorophenethyl)sulfinimidoyl)phenyl)-4-(4,4-dimethylpiperidin-1-yl)-2,6-dimethylpyridin-3-yl)acetic acid], under 0.1 µM; in that of `Cc1nc(C)c([C@H](OC(C)(C)C)C(=O)O)c(N2CCC(C)(C)CC2)c1-c1ccc(S(=O)(CCc2ccc(F)cc2)=NC(=O)OC(C)(C)C)cc1` (stereo partly drawn) [Example 81, (2S)-2-(tert-Butoxy)-2-(5-(4-(N-(tert-butoxycarbonyl)-2-(4-fluorophenyl)ethylsulfonimidoyl)phenyl)-4-(4,4-dimethylpiperidin-1-yl)-2,6-dimethylpyridin-3-yl)acetic acid], under 0.1 µM. In the case of `Cc1nc(C)c([C@H](OC(C)(C)C)C(=O)O)c(N2CCC(C)(C)CC2)c1-c1ccc(CO)cc1` [Example 82, (S)-2-(tert-Butoxy)-2-(4-(4,4-dimethylpiperidin-1-yl)-5-(4-(hydroxymethyl)phenyl)-2,6-dimethylpyridin-3-yl)acetic acid], the EC50 is under 0.1 µM. On the same count and under the same terms, in the case of `Cc1nc(C)c([C@H](OC(C)(C)C)C(=O)O)c(N2CCC(C)(C)CC2)c1-c1ccc(C=O)cc1` [Example 83, (S)-2-(tert-Butoxy)-2-(4-(4,4-dimethylpiperidin-1-yl)-5-(4-formylphenyl)-2,6-dimethylpyridin-3-yl)acetic acid] it was under 0.1 µM; in that of `Cc1nc(C)c([C@H](OC(C)(C)C)C(=O)O)c(N2CCC(C)(C)CC2)c1-c1ccc(C=Cc2ccc(F)cc2)cc1` [Example 84, (S)-2-(tert-Butoxy)-2-(4-(4,4-dimethylpiperidin-1-yl)-5-(4-(4-fluorostyryl)phenyl)-2,6-dimethylpyridin-3-yl)acetic acid], 0.1 to 1 µM. Still for that read-out and setting: in the case of `Cc1nc(C)c([C@H](OC(C)(C)C)C(=O)O)c(N2CCC(C)(C)CC2)c1-c1ccc(CCc2ccc(F)cc2)cc1` [Example 85, (S)-2-(tert-Butoxy)-2-(4-(4,4-dimethylpiperidin-1-yl)-5-(4-(4-fluorophenethyl)-phenyl)-2,6-dimethylpyridin-3-yl)acetic acid] it was under 0.1 µM.

Still in this experiment, the particulars now being: Renilla, NL43, 120 h, read-out: EC50 μM.
Regarding `Cc1nc(C)c([C@H](OC(C)(C)C)C(=O)O)c(N2CCC(C)(C)CC2)c1-c1ccc(C(=O)NCc2c(F)cc(F)cc2F)cc1` [Example 69, (S)-2-(tert-Butoxy)-2-(4-(4,4-dimethylpiperidin-1-yl)-2,6-dimethyl-5-(4-((2,4,6-trifluorobenzyl)carbamoyl)phenyl)pyridin-3-yl)acetic acid], the EC50 came to 0.004 µM.

For `Cc1nc(C)c([C@H](OC(C)(C)C)C(=O)O)c(N2CCC(C)(C)CC2)c1-c1ccc(SCCc2ccc(F)cc2)cc1` [Example 78, (S)-2-(tert-Butoxy)-2-(4-(4,4-dimethylpiperidin-1-yl)-5-(4-((4-fluorophenethyl)thio)phenyl)-2,6-dimethylpyridin-3-yl)acetic acid], the EC50 was 0.016 µM. Still for that read-out and setting: in the case of `Cc1nc(C)c([C@H](OC(C)(C)C)C(=O)O)c(N2CCC(C)(C)CC2)c1-c1ccc(C=Cc2ccc(F)cc2)cc1` [Example 84, (S)-2-(tert-Butoxy)-2-(4-(4,4-dimethylpiperidin-1-yl)-5-(4-(4-fluorostyryl)phenyl)-2,6-dimethylpyridin-3-yl)acetic acid] it was 0.126 µM.
